In US9777005B2 (Takeda Pharmaceutical Company Limited, priority 2012, dated 2017):

Biological target: T1, human M1 receptor (hCHRM1) (Homo sapiens, UniProt P11229)
T1 construct: expressed in transfected cells; host or cells: CHO-K1
T1 sequence (P11229 1-460): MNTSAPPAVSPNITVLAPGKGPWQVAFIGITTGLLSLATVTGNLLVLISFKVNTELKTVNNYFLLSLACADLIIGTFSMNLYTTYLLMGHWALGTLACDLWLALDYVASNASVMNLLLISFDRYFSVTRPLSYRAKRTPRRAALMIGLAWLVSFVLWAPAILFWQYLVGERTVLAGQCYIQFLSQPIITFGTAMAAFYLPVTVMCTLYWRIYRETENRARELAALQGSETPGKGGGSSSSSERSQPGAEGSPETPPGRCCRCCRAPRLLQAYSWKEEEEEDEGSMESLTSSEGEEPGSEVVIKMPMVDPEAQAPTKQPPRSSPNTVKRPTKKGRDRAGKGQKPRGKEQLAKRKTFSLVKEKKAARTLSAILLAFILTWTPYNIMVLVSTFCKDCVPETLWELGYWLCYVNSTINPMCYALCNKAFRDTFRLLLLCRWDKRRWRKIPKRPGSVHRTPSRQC
Assay: Measurement of M1 receptor positive allosteric modulator (M1PAM) activity, calcium fluorescence (FLIPRtetra) in CHO-K1 cells in the presence of acetylcholine at EC20
Format: cell-based
Conditions: in the presence of acetylcholine at EC20 (final 0.6 nM), CHO-K1 cells expressing hCHRM1; for EC50: inflection point of M1PAM activity, read-out: IP value; for activity (%) at 10 μM: test compound 10 μM
Description: Measurement of M1 Receptor Positive Allosteric Modulator (M1PAM) Activity
The activity of a test compound in the presence of acetylcholine at EC20 concentration (final concentration 0.6 nM), which affords an action corresponding to 20% of the maximum activity, was measured as PAM activity. The method is as follows. CHO-K1 cells forcibly expressing a human M1 receptor (hCHRM1) were plated on a 384-well black clear bottom plate (BD Falcon) at 5,000 cells/well, and cultured in an incubator at 37° C., 5% CO2 for 1 day. The medium in the cell plate was removed, and assay buffer A (Recording medium (DOJINDO LABORATORIES), 0.1% BSA (Wako Pure Chemical Industries, Ltd.), 2.5 μg/mL Fluo-4 AM (DOJINDO LABORATORIES), 0.08% Pluronic F127 (DOJINDO LABORATORIES), 1.25 mM probenecid (DOJINDO LABORATORIES)) containing a calcium indicator was added at 30 μL/well. The cells were left standing in the incubator at 37° C., 5% CO2 for 30 min, and further left standing at room temperature for 30 min. A test compound prepared by diluting with assay buffer B (HBSS (Invitrogen), 20 mM HEPES (Invitrogen), 0.1% BSA) containing 2.4 nM acetylcholine was added at 10 μL/well, and the fluorescence was measured by FLIPRtetra (Molecular Devices) for 1 min every 1 second. With the definition that the amount of change in the fluorescence on addition of acetylcholine (final concentration 1 μM) is 100% and that on addition of DMSO instead of a test compound is 0%, the activity (%) of the test compound and the inflection point in the concentration-dependent curve of the test compound were calculated as IP values.

Compound	EC50 [nM]	activity (%) at 10 μM [%]
Cn1ccc(-c2ccc(CN3Cc4ccnc(O[C@H]5CCC[C@@H]5O)c4C3=O)c(F)c2)n1 (relative stereo) [Example 236, 2-(2-fluoro-4-(1-methyl-1H-pyrazol-3-yl)benzyl)-4-((trans-2-hydroxycyclopentyl)oxy)-1,2-dihydro-3H-pyrrolo[3,4-c]pyridin-3-one]	10	109
Cn1ccc(-c2ccc(CN3Cc4cccc(O[C@H]5CCCC[C@@H]5O)c4C3=O)cc2)n1 (relative stereo) [Example 35, 7-((trans-2-hydroxycyclohexyl)oxy)-2-(4-(1-methyl-1H-pyrazol-3-yl)benzyl)isoindolin-1-one]	14	134
Cc1nn(C)cc1-c1ccc(CN2Cc3ccnc(OCC4CCCCO4)c3C2=O)cc1 (stereo not drawn) [Example 252, 2-(4-(1,3-dimethyl-1H-pyrazol-4-yl)benzyl)-4-((tetrahydro-2H-pyran-2-yl)methoxy)-1,2-dihydro-3H-pyrrolo[3,4-c]pyridin-3-one]	7.6	99
CCc1cc(F)c(Oc2nccc3c2C(=O)N(Cc2ccc(-n4cnc(C)c4)cc2)C3)c(F)c1 [Example 429, 4-(4-ethyl-2,6-difluorophenoxy)-2-(4-(4-methyl-1H-imidazol-1-yl)benzyl)-1,2-dihydro-3H-pyrrolo[3,4-c]pyridin-3-one]	11	109
Cn1cc(-c2ccc(CN3Cc4cccc(O[C@H]5CCCC(F)(F)[C@@H]5O)c4C3=O)cc2)cn1 (relative stereo) [Example 7, 7-((trans-3,3-difluoro-2-hydroxycyclohexyl)oxy)-2-(4-(1-methyl-1H-pyrazol-4-yl)benzyl)isoindolin-1-one]	32	114
O=C1c2c(cccc2OCC2CCCO2)CN1Cc1ccc(-n2cccn2)cc1 (stereo not drawn) [Example 53, 2-(4-(1H-pyrazol-1-yl)benzyl)-7-((tetrahydrofuran-2-yl)methoxy)isoindolin-1-one]	270	90
Cc1nn(C)cc1-c1ccc(CN2Cc3ccnc(Oc4cc(C(C)(C)O)ccc4F)c3C2=O)cc1 [Example 312, 2-(4-(1,3-dimethyl-1H-pyrazol-4-yl)benzyl)-4-(2-fluoro-5-(2-hydroxypropan-2-yl)phenoxy)-1,2-dihydro-3H-pyrrolo[3,4-c]pyridin-3-one]	39	96
O=C1c2c(ccnc2O[C@@H]2CCCC[C@H]2O)CN1Cc1cccc(F)c1 (single isomer, unassigned) [Example 321, 2-(3-fluorobenzyl)-4-((trans-2-hydroxycyclohexyl)oxy)-1,2-dihydro-3H-pyrrolo[3,4-c]pyridin-3-one]	32	104
O=C1c2c(ccnc2O[C@H]2CCCC[C@@H]2O)CN1Cc1cccs1 (relative stereo) [Example 399, 4-((trans-2-hydroxycyclohexyl)oxy)-2-(2-thienylmethyl)-1,2-dihydro-3H-pyrrolo[3,4-c]pyridin-3-one]	97	94
CCc1ccc(Oc2nccc3c2C(=O)N(Cc2ccc(C(=O)NC)cc2)C3)c(F)c1 [Example 444, 4-((4-(4-ethyl-2-fluorophenoxy)-3-oxo-1,3-dihydro-2H-pyrrolo[3,4-c]pyridin-2-yl)methyl)-N-methylbenzamide]	17	100
Cn1cc(-c2ccc(CN3Cc4ccnc(Oc5ccc(CC#N)cc5F)c4C3=O)cc2)cn1 [Example 405, (3-fluoro-4-((2-(4-(1-methyl-1H-pyrazol-4-yl)benzyl)-3-oxo-2,3-dihydro-1H-pyrrolo[3,4-c]pyridin-4-yl)oxy)phenyl)acetonitrile]	1.8	95
1,5-anhydro-2-deoxy-4-O-(3-oxo-2-(4-(1H-pyrazol-1-yl)benzyl)-2,3-dihydro-1H-isoindol-4-yl)-threo-pentitol [Example 241]	13	101
O=C1c2c(cccc2O[C@@H]2CCOC[C@H]2O)CN1Cc1ccc(F)cc1F (single isomer, unassigned) [Example 299, 1,5-anhydro-2-deoxy-3-O-(2-(2,4-difluorobenzyl)-3-oxo-2,3-dihydro-1H-isoindol-4-yl)-threo-pentitol]	18	91
Cc1cc(-c2ccc(CN3Cc4ncnc(Oc5c(F)cc(F)cc5F)c4C3=O)cc2)ccn1 [Example 367, 6-(4-(2-methylpyridin-4-yl)benzyl)-4-(2,4,6-trifluorophenoxy)-6,7-dihydro-5H-pyrrolo[3,4-d]pyrimidin-5-one]	28	101
O=C1c2c(cccc2O[C@H]2CCCC[C@@H]2O)CN1Cc1ccc(Cl)nc1 (relative stereo) [Example 43, 2-((6-chloropyridin-3-yl)methyl)-7-((trans-2-hydroxycyclohexyl)oxy)isoindolin-1-one]	210	99
Cn1ccc(-c2ccc(CN3Cc4cccc(O[C@@H]5COCC[C@H]5O)c4C3=O)cc2)n1 [Example 273, 1,5-anhydro-2-deoxy-4-O-(2-(4-(1-methyl-1H-pyrazol-3-yl)benzyl)-3-oxo-2,3-dihydro-1H-isoindol-4-yl)-threo-pentitol]	8.5	103
O=C1c2c(ccnc2O[C@@H]2CCCC[C@H]2O)CN1Cc1c(F)cc(F)cc1F (single isomer, unassigned) [Example 315, 4-((trans-2-hydroxycyclohexyl)oxy)-2-(2,4,6-trifluorobenzyl)-1,2-dihydro-3H-pyrrolo[3,4-c]pyridin-3-one]	6.6	101
C[C@@H](O)[C@@H](C)Oc1nccc2c1C(=O)N(Cc1c(F)cc(F)cc1F)C2 [Example 425, 4-(((2R,3R)-3-hydroxybutan-2-yl)oxy)-2-(2,4,6-trifluorobenzyl)-1,2-dihydro-3H-pyrrolo[3,4-c]pyridin-3-one]	86	102
Cc1nn(C)cc1-c1ccc(CN2Cc3ccnc(OCC4CCOCC4)c3C2=O)c(F)c1 [Example 262, 2-(4-(1,3-dimethyl-1H-pyrazol-4-yl)-2-fluorobenzyl)-4-((tetrahydro-2H-pyran-4-yl)methoxy)-1,2-dihydro-3H-pyrrolo[3,4-c]pyridin-3-one]	54	107
Cn1ccc(-c2ccc(CN3Cc4ccnc(Oc5ccc(C(C)(C)O)cc5F)c4C3=O)cc2)n1 [Example 413, 4-(2-fluoro-4-(2-hydroxypropan-2-yl)phenoxy)-2-(4-(1-methyl-1H-pyrazol-3-yl)benzyl)-1,2-dihydro-3H-pyrrolo[3,4-c]pyridin-3-one]	10	104
Cc1cc(-c2ccc(CN3Cc4ccnc(OCc5ccccc5F)c4C3=O)c(F)c2)cnn1 [Example 344, 4-((2-fluorobenzyl)oxy)-2-(2-fluoro-4-(6-methylpyridazin-4-yl)benzyl)-1,2-dihydro-3H-pyrrolo[3,4-c]pyridin-3-one]	55	97
Cc1cc(-c2ccc(CN3Cc4cccc(O[C@H]5CCCC[C@@H]5O)c4C3=O)cc2)cnn1 (relative stereo) [Example 355, 7-((trans-2-hydroxycyclohexyl)oxy)-2-(4-(6-methylpyridazin-4-yl)benzyl)isoindolin-1-one]	4.3	95
COc1ccc(F)c(Oc2nccc3c2C(=O)N(Cc2ccc(-c4cn(C)nc4C)cc2F)C3)c1F [Example 283, 4-(2,6-difluoro-3-methoxyphenoxy)-2-(4-(1,3-dimethyl-1H-pyrazol-4-yl)-2-fluorobenzyl)-1,2-dihydro-3H-pyrrolo[3,4-c]pyridin-3-one]	10	97
Cn1ccc(-c2ccc(CN3Cc4cccc(O[C@@H]5CCOC[C@H]5O)c4C3=O)cc2)n1 [Example 272, 1,5-anhydro-2-deoxy-3-O-(2-(4-(1-methyl-1H-pyrazol-3-yl)benzyl)-3-oxo-2,3-dihydro-1H-isoindol-4-yl)-threo-pentitol]	6.5	107
